One experiment has as its target T1, human CB2 receptors (Homo sapiens, UniProt P34972).
T1 construct: expressed in transfected cells; host or cells: HEK293
Kind of experiment: human CB2 radioligand binding assay ([3H]CP-55,940 competition).

Experiment [1] deals with T2, rat CB2 (Rattus norvegicus, UniProt Q9QZN9).
T2 sequence (Q9QZN9 1-360): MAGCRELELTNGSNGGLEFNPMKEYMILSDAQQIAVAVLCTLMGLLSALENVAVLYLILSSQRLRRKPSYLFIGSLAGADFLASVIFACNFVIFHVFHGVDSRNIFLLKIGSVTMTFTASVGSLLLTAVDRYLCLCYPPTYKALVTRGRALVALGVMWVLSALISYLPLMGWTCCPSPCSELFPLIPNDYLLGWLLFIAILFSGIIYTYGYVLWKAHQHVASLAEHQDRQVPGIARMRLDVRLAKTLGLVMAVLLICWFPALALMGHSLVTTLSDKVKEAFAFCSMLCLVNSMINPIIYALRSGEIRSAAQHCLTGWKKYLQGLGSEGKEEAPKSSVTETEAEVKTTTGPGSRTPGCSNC
As to the kind of experiment: rat CB2 cyclase functional assay (HitHunter cAMP, HEK cells). It is filed as cell-based. Also noted: expressed in transfected cells; host or cells: HEK. To be noted: forskolin 18 μM.

Experiment [2] has as its target T2, rat CB2. Kind of experiment: rat CB2 radioligand binding assay ([3H]CP-55,940 competition). Also noted: expressed in transfected cells; host or cells: HEK293.

T1 sequence (P34972 whole entry): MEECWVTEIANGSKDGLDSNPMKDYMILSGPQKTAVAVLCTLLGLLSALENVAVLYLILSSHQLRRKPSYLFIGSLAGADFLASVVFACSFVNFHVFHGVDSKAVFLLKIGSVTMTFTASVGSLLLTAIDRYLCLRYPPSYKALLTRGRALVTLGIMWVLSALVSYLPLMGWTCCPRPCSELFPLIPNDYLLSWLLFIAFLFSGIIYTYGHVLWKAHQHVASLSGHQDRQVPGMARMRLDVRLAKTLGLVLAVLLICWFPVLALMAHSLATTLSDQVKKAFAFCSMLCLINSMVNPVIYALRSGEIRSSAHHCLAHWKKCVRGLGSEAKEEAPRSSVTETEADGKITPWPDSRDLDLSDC

On to `CCCCc1cn(C(C)(C)C)s/c1=N\C(=NC#N)c1cc(C(F)(F)F)ccc1OC` [Example 124, N-[(5Z)-4-butyl-2-tert-butylisothiazol-5(2H)-ylidene]-N′-cyano-2-methoxy-5-(trifluoromethyl)benzenecarboximidamide], for which the inhibition constant (Ki) was found to be 3 nM at human CB2 receptors and 2.3 nM on rat CB2 [2]. On rat CB2 [1], this compound yielded an EC50 of 0.027 nM.
With `CCCCc1cn(C(C)(C)C)s/c1=N\C(=O)C1=CC(=O)CC(C)(C)O1` [Example 125, N-[(5Z)-4-butyl-2-tert-butylisothiazol-5(2H)-ylidene]-2,2-dimethyl-4-oxo-3,4-dihydro-2H-pyran-6-carboxamide], the values for the Ki on human CB2 receptors and on rat CB2 [2] were 31 nM and 1 nM, respectively. For the same compound, on rat CB2 [1], a half-maximal response (EC50) required 2.6 nM.
As to `CCCCc1cn(C(C)(C)C)s/c1=N\C(=NC#N)c1cc(C(F)(F)F)ccc1OCC` [Example 126, N-[(5Z)-4-butyl-2-tert-butylisothiazol-5(2H)-ylidene]-N′-cyano-2-ethoxy-5-(trifluoromethyl)benzenecarboximidamide], the Ki came to 0.6 nM on human CB2 receptors and 1.2 nM at rat CB2 [2]. On rat CB2 [1], this compound had an EC50 of 0.076 nM.
The matching figures for `CCCCc1cn(C(C)(C)C)s/c1=N\C(=O)c1cc(C(F)(F)F)ccc1OC` [Example 127, N-[(5Z)-4-butyl-2-tert-butylisothiazol-5(2H)-ylidene]-2-methoxy-5-(trifluoromethyl)benzamide]: 3.7 nM, 0.43 nM and 0.16 nM.
For `COc1ccc(Cl)cc1C(=NC#N)/N=c1\sn(C(C)(C)C)cc1CCCC#N` [Example 128, N-[(5Z)-2-tert-butyl-4-(3-cyanopropyl)isothiazol-5(2H)-ylidene]-5-chloro-N′-cyano-2-methoxybenzenecarboximidamide] the same measures were 15 nM, 5.8 nM and 0.26 nM.
Turning to `CC(C)(C)n1cc(CCCC#N)/c(=N/C(=O)c2cc(Cl)ccc2OCC(F)(F)F)s1` [Example 133, N-[(5Z)-2-tert-butyl-4-(3-cyanopropyl)isothiazol-5(2H)-ylidene]-5-chloro-2-(2,2,2-trifluoroethoxy)benzamide], the Ki on human CB2 receptors came out at 15 nM; on rat CB2 [2], 1.1 nM. This compound also returned an EC50 on rat CB2 [1] of 1.4 nM.
The matching figures for `COc1ccc(C(F)(F)F)cc1C(=O)/N=c1\sn(C(C)(C)C)cc1CCCC#N` [Example 134, N-[(5Z)-2-tert-butyl-4-(3-cyanopropyl)isothiazol-5(2H)-ylidene]-2-methoxy-5-(trifluoromethyl)benzamide]: 18 nM, 1.1 nM and 1.6 nM.
Consider `COc1ccc(Cl)cc1C(=O)/N=c1\sn(C(C)(C)C)cc1CC1CCCC1` [Example 136, N-[(5Z)-2-tert-butyl-4-(cyclopentylmethyl)isothiazol-5(2H)-ylidene]-5-chloro-2-methoxybenzamide], for which the results for the Ki at human CB2 receptors and on rat CB2 [2] were 1.9 nM and 0.51 nM, respectively. At rat CB2 [1], this compound gave an EC50 of 0.051 nM.
Regarding `COc1ccc(Cl)cc1C(=O)/N=c1\sn(C(C)(C)C)cc1CCC(C)(C)C#N` [Example 137, N-[(5Z)-2-tert-butyl-4-(3-cyano-3-methylbutyl)isothiazol-5(2H)-ylidene]-5-chloro-2-methoxybenzamide], the inhibitory constant (Ki) at human CB2 receptors turned out to be 7.5 nM; at rat CB2 [2] it was 2.6 nM. This compound also came in with an EC50 on rat CB2 [1] of 2.2 nM.
With `COc1ccc(Cl)cc1C(=O)/N=c1\sn(C(C)(C)C)cc1CCCCC#N` [Example 138, N-[(5Z)-2-tert-butyl-4-(4-cyanobutyl)isothiazol-5(2H)-ylidene]-5-chloro-2-methoxybenzamide], the Ki on human CB2 receptors amounted to 5.9 nM; at rat CB2 [2] it was 0.9 nM. Further, the EC50 on rat CB2 [1] stood at 12.8 nM.
With `CCCCc1cn(C(C)(C)C)s/c1=N\C(=O)c1cc(Cl)ccc1OCCF` [Example 139, N-[(5Z)-4-butyl-2-tert-butylisothiazol-5(2H)-ylidene]-5-chloro-2-(2-fluoroethoxy)benzamide], the Ki on human CB2 receptors was 5.5 nM; on rat CB2 [2] it was 2 nM. For the same compound, on rat CB2 [1], a half-maximal effect (EC50) was put at 0.059 nM.
Take `CCCCc1cn(C(C)(C)C)s/c1=N\C(=O)c1cc(Cl)ccc1OCC(N)=O` [Example 140, 2-(2-amino-2-oxoethoxy)-N-[(5Z)-4-butyl-2-tert-butylisothiazol-5(2H)-ylidene]-5-chlorobenzamide]: the figures for the Ki at human CB2 receptors and on rat CB2 [2] were 11 nM and 3.9 nM, respectively. The compound also returned an EC50 on rat CB2 [1] of 0.15 nM.
As for `CC(C)(C)n1cc(CCCC#N)/c(=N/C(=O)c2cc(Cl)ccc2OCC(N)=O)s1` [Example 141, 2-(2-amino-2-oxoethoxy)-N-[(5Z)-2-tert-butyl-4-(3-cyanopropyl)isothiazol-5(2H)-ylidene]-5-chlorobenzamide], the Ki at human CB2 receptors came out at 56 nM; at rat CB2 [2] it was 15 nM. The EC50 at rat CB2 [1] came out at 0.094 nM.
With `COc1ccc(Cl)cc1C(=O)/N=c1\sn(C(C)(C)C)cc1CCCC(F)(F)F` [Example 142, N-[(5Z)-2-tert-butyl-4-(4,4,4-trifluorobutyl)isothiazol-5(2H)-ylidene]-5-chloro-2-methoxybenzamide], the Ki on human CB2 receptors was 2.2 nM; on rat CB2 [2] it was 0.43 nM. On rat CB2 [1], this compound returned a concentration giving a half-maximal response (EC50) of 0.062 nM.
On to `COc1ccc(C(F)(F)F)cc1C(=O)/N=c1\sn(C(C)(C)C)cc1CC(C)C` [Example 143, N-[(5Z)-2-tert-butyl-4-isobutylisothiazol-5(2H)-ylidene]-2-methoxy-5-(trifluoromethyl)benzamide], for which the Ki at human CB2 receptors stood at 11 nM; at rat CB2 [2], 1.8 nM. Moreover, at rat CB2 [1], the EC50 amounted to 0.1 nM.
As to `CC(C)Cc1cn(C(C)(C)C)s/c1=N\C(=O)c1cc(Cl)ccc1OCCF` [Example 144, N-[(5Z)-2-tert-butyl-4-isobutylisothiazol-5(2H)-ylidene]-5-chloro-2-(2-fluoroethoxy)benzamide], the values for the inhibition constant (Ki) on human CB2 receptors and on rat CB2 [2] were 8.8 nM and 1.2 nM, respectively. Moreover, the half-maximal effective concentration (EC50) at rat CB2 [1] is 0.1 nM.
Take `COc1ccc(C#N)cc1C(=O)/N=c1\sn(C(C)(C)C)cc1CC(C)C` [Example 145, N-[(5Z)-2-tert-butyl-4-isobutylisothiazol-5(2H)-ylidene]-5-cyano-2-methoxybenzamide]: the Ki at human CB2 receptors worked out at 58 nM; on rat CB2 [2] it was 6.1 nM. Besides, the midpoint of the response on rat CB2 [1], the EC50, lay at 0.078 nM.
In the case of `CCOc1ccc(C(F)(F)F)cc1C(=O)/N=c1\sn(C(C)(C)C)cc1CC(C)C` [Example 146, N-[(5Z)-2-tert-butyl-4-isobutylisothiazol-5(2H)-ylidene]-2-ethoxy-5-(trifluoromethyl)benzamide], the Ki on human CB2 receptors is 24 nM; at rat CB2 [2], 3.1 nM. This compound returned an EC50 at rat CB2 [1] of 0.29 nM.
For `CCCCCc1cn(C(C)(C)C)s/c1=N\C(=O)c1cc(Cl)ccc1OC` [Example 147, N-[(5Z)-2-tert-butyl-4-pentylisothiazol-5(2H)-ylidene]-5-chloro-2-methoxybenzamide], the Ki on human CB2 receptors is 1.6 nM; at rat CB2 [2] it was 0.15 nM. The same compound had an EC50 on rat CB2 [1] of 0.062 nM.
On to `COc1ccc(Cl)cc1C(=O)/N=c1\sn(C(C)(C)C)cc1CCCCF` [Example 148, N-[(5Z)-2-tert-butyl-4-(4-fluorobutyl)isothiazol-5(2H)-ylidene]-5-chloro-2-methoxybenzamide], for which the Ki is 7.6 nM at human CB2 receptors and 0.24 nM at rat CB2 [2]. The 50% effective concentration (EC50) at rat CB2 [1] is 0.11 nM.
For `COc1ccc(C(F)(F)F)cc1C(=O)/N=c1\sn(C(C)(C)C)cc1CCCCF` [Example 149, N-[(5Z)-2-tert-butyl-4-(4-fluorobutyl)isothiazol-5(2H)-ylidene]-2-methoxy-5-(trifluoromethyl)benzamide] the same measures were 8.3 nM, 0.15 nM and 0.23 nM.
As to `CCCCc1cn(C(C)(C)C(F)(F)F)s/c1=N\C(=O)c1cc(Cl)ccc1OC` [Example 151, N-[(5Z)-4-butyl-2-(2,2,2-trifluoro-1,1-dimethylethyl)isothiazol-5(2H)-ylidene]-5-chloro-2-methoxybenzamide], the results for the inhibition constant (Ki) at human CB2 receptors and at rat CB2 [2] were 9.1 nM and 0.4 nM, respectively. A half-maximal response on rat CB2 [1] (EC50) required 0.072 nM.
For `CCCCc1cn(C(C)(C)CF)s/c1=N\C(=O)c1cc(C(F)(F)F)ccc1OC` [Example 152, N-[(5Z)-4-butyl-2-(2-fluoro-1,1-dimethylethyl)isothiazol-5(2H)-ylidene]-2-methoxy-5-(trifluoromethyl)benzamide] the same measures were 5.1 nM, 0.79 nM and 0.071 nM.
Regarding `CCCCc1cn(C(C)(C)C)s/c1=N\C(=O)c1cc(Cl)ccc1OCC#N` [Example 153, N-[(5Z)-4-butyl-2-tert-butylisothiazol-5(2H)-ylidene]-5-chloro-2-(cyanomethoxy)benzamide], the Ki stood at 13 nM at human CB2 receptors and 2.1 nM at rat CB2 [2]. At rat CB2 [1], this compound gave a concentration for a half-maximal effect (EC50) of 0.061 nM.
As for `CCCCc1cn(C(C)(C)CF)s/c1=N\C(=O)c1cc(Cl)ccc1OC` [Example 154, N-[(5Z)-4-butyl-2-(2-fluoro-1,1-dimethylethyl)isothiazol-5(2H)-ylidene]-5-chloro-2-methoxybenzamide], the Ki on human CB2 receptors worked out at 5.7 nM; on rat CB2 [2] it was 0.32 nM. The same compound registered an EC50 on rat CB2 [1] of 0.065 nM.
As for `COc1ccc(Cl)cc1C(=O)/N=c1\sn(C(C)(C)C)cc1OCCCCF` [Example 158, N-[(5Z)-2-tert-butyl-4-(4-fluorobutoxy)isothiazol-5(2H)-ylidene]-5-chloro-2-methoxybenzamide], the inhibitory constant (Ki) on human CB2 receptors was determined as 48 nM; at rat CB2 [2], 6.1 nM. For the same compound, the EC50 on rat CB2 [1] was determined as 0.046 nM.

For the origin of these results see patent US8501794B2, “Compounds as cannabinoid receptor ligands” (priority 2007, dated 2013).
